Assay results taken from patent publication US11339161B2, “Triazolo pyridines as modulators of gamma-secretase” (Boehringer Ingelheim International GmbH, priority 2017, dated 2022).
Read-outs that look alike come from different tables or passages of the source.

Key:
FGFR2 = FGFR2 (Homo sapiens, UniProt P21802); experiment: Z'-LYTE SelectScreen biochemical kinase assay FGFR2
Text: (§1) Thermo Fisher Scientific SelectScreen™ Biochemical Kinase Profiling Service Z′-LYTE™ Screening Protocol and Assay Conditions Assay Theory
(§2) The […] biochemical assay employs a fluorescence-based, coupled-enzyme format and is based on the differential sensitivity of phosphorylated and non-phosphorylated peptides to proteolytic cleavage. The peptide substrate is labeled with two fluorophores—one at each end—that make up a FRET pair. In the primary reaction, the kinase transfers the gamma-phosphate of ATP to a single tyrosine, serine or threonine residue in a synthetic FRET-peptide. In the secondary reaction, a site-specific protease recognizes and cleaves non-phosphorylated FRET-peptides. Phosphorylation of FRET-peptides suppresses cleavage by the Development Reagent. Cleavage disrupts FRET between the donor (i.e., coumarin) and acceptor (i.e., fluorescein) fluorophores on the FRET-peptide, whereas uncleaved, phosphorylated FRET-peptides maintain FRET. A ratiometric method, which calculates the ratio (Emission Ratio=Coumarin emission (445 nm)/Fluorescein emission (520 nm)) of donor emission to acceptor emission after excitation of the donor fluorophore at 400 nm, is used to quantitate reaction progress, as shown in the equation below. A significant benefit of this ratiometric method for quantitating reaction progress is the elimination of well-to-well variations in FRET-peptide concentration and signal intensities. As a result, the assay yields very high Z′-factor values (>0.7) at a low percent phosphorylation. Both cleaved and uncleaved FRET-peptides contribute to the fluorescence signals and therefore to the Emission Ratio. The extent of phosphorylation of the FRET-peptide can be calculated from the Emission Ratio. The Emission Ratio will remain low if the FRET-peptide is phosphorylated (i.e., no kinase inhibition) and will be high if the FRET-peptide is non-phosphorylated (i.e., kinase inhibition).
(§3) The Test Compounds are screened in 1% DMSO (final) in the well. For 10 point titrations, 3-fold serial dilutions are conducted from the starting concentration of the customer's choosing.
(§4) All Peptide/Kinase Mixtures are diluted to a 2× working concentration in the appropriate Kinase Buffer (see section Kinase Specific Assay Conditions for a complete description).
(§5) All ATP Solutions are diluted to a 4× working concentration in Kinase Buffer (50 mM HEPES pH 7.5, 0.01% BRIJ-35, 10 mM MgCl2, 1 mM EGTA). ATP Km apparent is previously determined using a Z″-LYTE assay.
(§6) The Development Reagent is diluted in Development Buffer (see section Kinase-Specific Assay Conditions—Direct and Cascade for a complete description).
(§7) Bar-coded Corning, low volume NBS, black 384-well plate (Corning Cat. #4514) • 1. 100 nL—100× Test Compound in 100% DMSO • 2. 2.4 μL—Kinase buffer • 3. 5 μL—2× Peptide/Kinase Mixture • 4. 2.5 μL—4×ATP Solution • 5. 30—second plate shake • 6. 60—minute Kinase Reaction incubation at room temperature • 7. 5 μL—Development Reagent Solution • 8. 30—second plate shake • 9. 60—minute Development Reaction incubation at room temperature • 10. Read on fluorescence plate reader and analyze the data Z′-LYTE Assay Controls
(§8) SelectScreen Kinase Profiling Service uses XLfit from IDBS. The dose response curve is curve fit to model number 205 (sigmoidal dose-response model).
The 2×FGFR2/Tyr 04 mixture is prepared in 50 mM HEPES pH 7.5, 0.01% BRIJ-35, 10 mM MgCl2, 4 mM MnCl2, 1 mM EGTA, 2 mM DTT. The final 10 μL Kinase Reaction consists of 0.19-1.99 ng FGFR2 and 2 μM Tyr 04 in 50 mM HEPES pH 7.5, 0.01% BRIJ-35, 10 mM MgCl2, 2 mM MnCl2, 1 mM EGTA, 1 mM DTT. After the 1 hour Kinase Reaction incubation, 5 μL of a 1:64 dilution of Development Reagent B is added.

MAP4K2 (GCK) = target: T1, MAP4K2 (GCK) (Homo sapiens, UniProt Q12851); experiment: Z'-LYTE SelectScreen biochemical kinase assay MAP4K2 (GCK)
T1 sequence (Q12851 1-820): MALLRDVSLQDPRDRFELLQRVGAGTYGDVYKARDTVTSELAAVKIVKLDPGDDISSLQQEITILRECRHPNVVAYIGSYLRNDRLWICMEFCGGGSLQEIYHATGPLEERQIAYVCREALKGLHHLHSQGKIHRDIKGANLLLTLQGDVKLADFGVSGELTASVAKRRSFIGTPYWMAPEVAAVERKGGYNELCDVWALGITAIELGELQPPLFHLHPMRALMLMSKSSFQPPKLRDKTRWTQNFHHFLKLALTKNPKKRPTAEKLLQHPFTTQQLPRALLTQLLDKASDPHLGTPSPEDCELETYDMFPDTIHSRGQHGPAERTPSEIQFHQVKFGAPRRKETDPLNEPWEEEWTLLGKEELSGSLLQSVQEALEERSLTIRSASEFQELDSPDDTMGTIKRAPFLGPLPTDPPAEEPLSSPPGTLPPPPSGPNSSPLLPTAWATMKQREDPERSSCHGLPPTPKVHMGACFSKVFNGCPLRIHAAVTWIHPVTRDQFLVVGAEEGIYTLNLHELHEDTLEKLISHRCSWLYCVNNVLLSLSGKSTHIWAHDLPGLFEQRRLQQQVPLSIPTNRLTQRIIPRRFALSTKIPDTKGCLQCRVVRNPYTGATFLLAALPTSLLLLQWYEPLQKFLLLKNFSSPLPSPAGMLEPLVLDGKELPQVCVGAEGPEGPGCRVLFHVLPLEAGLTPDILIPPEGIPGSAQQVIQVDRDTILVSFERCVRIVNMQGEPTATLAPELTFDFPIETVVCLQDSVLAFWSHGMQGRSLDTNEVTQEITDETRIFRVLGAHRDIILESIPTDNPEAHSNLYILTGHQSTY
Text: as §1, §2, §3, §4, §5, §6, §7, §8
The 2×MAP4K2 (GCK)/Ser/Thr 07 mixture is prepared in 50 mM HEPES pH 7.5, 0.01% BRIJ-35, 10 mM MgCl2, 1 mM EGTA. The final 10 μL Kinase Reaction consists of 0.11-3 ng MAP4K2 (GCK) and 2 μM Ser/Thr 07 in 50 mM HEPES pH 7.5, 0.01% BRIJ-35, 10 mM MgCl2, 1 mM EGTA. After the 1 hour Kinase Reaction incubation, 5 μL of a 1:45000 dilution of Development Reagent A is added.

[1] = 10 μmolar compound concentration, ATP at Km app, read-out: FGFR2 inhibition
[2] = read-out: % Inhibition mean FGFR2
[3] = 10 μmolar compound concentration, ATP at Km app, read-out: MAP4K2 (GCK) inhibition
[4] = read-out: % Inhibition mean MAP4K2 (GCK)

Chain of FGFR2 (P21802 22-821): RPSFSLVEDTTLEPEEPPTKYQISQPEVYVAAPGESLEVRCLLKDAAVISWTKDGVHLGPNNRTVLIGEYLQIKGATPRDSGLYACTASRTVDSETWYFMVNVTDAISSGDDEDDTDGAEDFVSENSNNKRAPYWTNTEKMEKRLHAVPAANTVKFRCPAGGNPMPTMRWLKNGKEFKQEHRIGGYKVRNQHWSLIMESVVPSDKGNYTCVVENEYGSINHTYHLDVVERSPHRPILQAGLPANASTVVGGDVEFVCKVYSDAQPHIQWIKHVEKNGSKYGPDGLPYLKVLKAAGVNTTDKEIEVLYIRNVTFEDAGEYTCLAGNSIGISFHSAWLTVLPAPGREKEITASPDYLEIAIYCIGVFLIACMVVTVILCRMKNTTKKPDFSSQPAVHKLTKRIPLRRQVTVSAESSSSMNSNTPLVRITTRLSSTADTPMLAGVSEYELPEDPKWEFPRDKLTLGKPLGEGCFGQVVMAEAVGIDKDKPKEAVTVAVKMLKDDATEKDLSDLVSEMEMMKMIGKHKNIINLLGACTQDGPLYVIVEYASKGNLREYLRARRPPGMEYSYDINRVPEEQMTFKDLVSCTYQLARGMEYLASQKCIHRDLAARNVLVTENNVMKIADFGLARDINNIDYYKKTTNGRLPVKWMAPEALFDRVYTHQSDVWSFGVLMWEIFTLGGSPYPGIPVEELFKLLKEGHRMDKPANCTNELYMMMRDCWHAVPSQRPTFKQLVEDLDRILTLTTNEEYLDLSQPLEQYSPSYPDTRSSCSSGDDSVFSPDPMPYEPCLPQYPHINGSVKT

inhibition at 10 µM (FGFR2; [1]) [%]	inhibition at 10 µM (FGFR2; [2]) [%]	inhibition at 10 µM (MAP4K2 (GCK); [3]) [%]	inhibition at 10 µM (MAP4K2 (GCK); [4]) [%]	inhibition at 10 µM (FGFR2; read-out: % Inhibition mean) [%]	inhibition at 10 µM (MAP4K2 (GCK); read-out: % Inhibition mean) [%]	SMILES
< 40	11	< 40	22			CCn1ncc2c1CCC(Nc1nc3c(-c4cccc(Cl)c4)cccn3n1)C2 (stereo not drawn) [Example 59, [8-(3-Chloro-phenyl)-[1,2,4]triazolo[1,5-a]pyridine-2-yl]-(1-ethyl-4,5,6,7-tetrahydro-1H-indazol-5-yl)-amine]
< 40	21	< 40	11			CCCCCn1ncc2c1CCC(Nc1nc3c(-c4ccc(F)cc4C)cccn3n1)C2 (stereo not drawn) [Example 47, [8-(4-fluoro-2-methyl-phenyl)-[1,2,4]triazolo[1,5-a]pyridine-2-yl]-(1-pentyl-4,5,6,7-tetrahydro-1H-indazol-5-yl)-amine]
40 to 80	46	40 to 80	43			Cc1cc(F)ccc1-c1cccn2nc(Nc3ccc4c(cnn4C)c3)nc12 [Example 9, [8-(4-fluoro-2-methyl-phenyl)-[1,2,4]triazolo[1,5-a]pyridine-2-yl]-(1-methyl-1H-indazol-5-yl)-amine]
> 80		> 80		90	94	Fc1cccc(-c2cccn3nc(Nc4ccc5[nH]cnc5c4)nc23)c1 [Cpd. 293 in WO09155551, reference compound]
< 40	14	< 40	8			Cc1cc(F)ccc1-c1cccn2nc(NC3CCc4c(cnn4C)C3)nc12 (stereo not drawn) [Example 10, [8-(4-fluoro-2-methyl-phenyl)-[1,2,4]triazolo[1,5-a]pyridine-2-yl]-(1-methyl-4,5,6,7-tetrahydro-1H-indazol-5-yl)-amine]
< 40	26	< 40	21			CCn1ncc2c1CCC(Nc1nc3c(-c4ccc(F)cc4C)cccn3n1)C2 (stereo not drawn) [Example 42, (1-Ethyl-4,5,6,7-tetrahydro-1H-indazol-5-yl)-[8-(4-fluoro-2-methyl-phenyl)-[1,2,4]triazolo[1,5-a]pyridine-2-yl]-amine]
< 40	27	< 40	26			CCn1ncc2c1CCC(Nc1nc3c(-c4ccc(OC)nc4)cccn3n1)C2 (stereo not drawn) [Example 71, (1-Ethyl-4,5,6,7-tetrahydro-1H-indazol-5-yl)-[8-(6-methoxy-pyridin-3-yl)-[1,2,4]triazolo[1,5-a]pyridine-2-yl]-amine]
> 80		> 80		98	99	CC1(C)NC(=O)c2ccc(Nc3nc4c(-c5cccc(F)c5)cccn4n3)cc21 [Cpd. 302 in WO09155551, reference compound]
< 40	22	< 40	13			CCn1ncc2c1CCC(Nc1nc3c(-c4ccccc4)cccn3n1)C2 (stereo not drawn) [Example 57, (1-Ethyl-4,5,6,7-tetrahydro-1H-indazol-5-yl)-(8-phenyl-[1,2,4]triazolo[1,5-a]pyridine-2-yl)-amine]
< 40	17	< 40	13			Cc1cc(F)ccc1-c1cccn2nc(NC3CCc4cnn(C)c4C3)nc12 (stereo not drawn) [Example 40, [8-(4-Fluoro-2-methyl-phenyl)-[1,2,4]triazolo[1,5-a]pyridine-2-yl]-(1-methyl-4,5,6,7-tetrahydro-1H-indazol-6-yl)-amine]
< 40	13	< 40	12			CCn1ncc2c1CC[C@H](Nc1nc3c(-c4ccc(F)c(Cl)c4)cccn3n1)C2 [Example S-61, (S)-[8-(3-Chloro-4-fluoro-phenyl)-[1,2,4]triazolo[1,5-a]pyridine-2-yl]-(1-ethyl-4,5,6,7-tetrahydro-1H-indazol-5-yl)-amine]
< 40	26	40 to 80	49			CCn1ncc2c1CCC(Nc1nc3c(-c4cncc(Cl)c4)cccn3n1)C2 (stereo not drawn) [Example 73, [8-(5-Chloro-pyridin-3-yl)-[1,2,4]triazolo[1,5-a]pyridine-2-yl]-(1-ethyl-4,5,6,7-tetrahydro-1H-indazol-5-yl)-amine]
< 40	30	< 40	14			CCn1ncc2c1CCC(Nc1nc3c(-c4ccc(C)nc4)cccn3n1)C2 (stereo not drawn) [Example 67, (1-Ethyl-4,5,6,7-tetrahydro-1H-indazol-5-yl)-[8-(6-methyl-pyridin-3-yl)-[1,2,4]triazolo[1,5-a]pyridine-2-yl]-amine]
< 40	30	< 40	25			CCn1ncc2c1CC[C@@H](Nc1nc3c(-c4ccc(F)cc4C)cccn3n1)C2 [Example R-42, (R)-(1-Ethyl-4,5,6,7-tetrahydro-1H-indazol-5-yl)-[8-(4-fluoro-2-methyl-phenyl)-[1,2,4]triazolo[1,5-a]pyridine-2-yl]-amine]
< 40	13	< 40	30			CCn1ncc2c1CCC(Nc1nc3c(-c4ccc(F)cc4)cccn3n1)C2 (stereo not drawn) [Example 55, (1-Ethyl-4,5,6,7-tetrahydro-1H-indazol-5-yl)-[8-(4-fluoro-phenyl)-[1,2,4]triazolo[1,5-a]pyridine-2-yl]-amine]
